The text below walks through data of patent US20230190774A1, “METHOD OF USING SUBSTRATES OF AKR1Bl/AKR1B10 AS ANTI-CANCER DRUGS” (Beijing Normal University Hong Kong Baptist University …, priority 2015, published 2023).

SMILES strings stand for the structures. “Also recorded” adds a separate entry of the source.

Data set [1] concerns the target T1, AKR1B10 (Homo sapiens, UniProt O60218). To be noted: ND = no detectable activity or less than 32 nmol/min/mg; cited from earlier work.
In another data set the test system is glycolysis. The settings on record: background statement; cited from earlier work.
The target of data set [2] is T2, AKR1B1 (Homo sapiens, UniProt P15121). Put plainly: Enzyme activity assay (NADPH oxidation), purified AKR1B1. Format: biochemical. To be noted: 20 mM substrate, pH 6.2, 30° C. The protocol: (§1) Assay of AKR1B1 and AKR1B10 enzymes activities were conducted in 1 ml of the reaction mixture containing 135 mM sodium phosphate buffer (pH 6.2 for AKR1B1 or pH 7.0 for AKR1B10), 0.2 mM NADPH, 0.3 M ammonium sulfate, 2 µg purified protein and 20 mM of their substrate as indicated. The reaction mix was incubated at 30° C. for 30 minutes (min). Protein-free blank controls were included. The decrease of NADPH was monitored by spectrophotometer at 340 nm. Enzyme activity was calculated as the amount of NADPH oxidized/min/mg of protein (Shen Y et al., Chem Biol Interact. 2011, 191(1-3): 192-198).

The test system of data set [3] is CaCo2 cells. The data set can be described thus: GSH assay of cell lysates. To be noted: 2DG (20 mM) 48 h. Format: cell-based. As to the method:
(§2) HepG2 cells, SKOV3 cells, HCT116 cells and CaCo2 cells were cultured in DMEM medium, SW480 cells in 1640 medium, and HT29 cells in McCoy’s 5A medium. All cell culture media were supplemented with 10% FBS, 1% PSN, and cells were cultured in a humidified incubator containing 5% CO2 at 37° C. In cytotoxicity assays, cells were seeded at 1 × 10^5 cells/well in 96 well plates with full medium. In GSH assay and Western blot analysis, cells were seeded at 3× 10^6 cells/well in 6 well plates.
(§3) The cells were washed in cold PBS and then scraped into 300 µL of PBS. The cells were disrupted by ultrasonicator on ice followed by centrifuged at 3500 rpm at 4° C. The supernatant was transferred to a fresh tube and used for GSH assay using GSH assay kit. The concentrations of GSH in cell lysates were determined using the standard GSH calibration curve. The GSH detection for each sample was performed at least three times.

For data set [4], the system named is HepG2 cells. Put plainly: GSH assay of cell lysates. It is filed as cell-based. The settings on record: 2DG (20 mM) 48 h. As to the method: as §2, §3
In data set [5] the test system is SKOV3 cells. The data set can be described thus: GSH assay of cell lysates. Format: cell-based. The settings on record: 2DG (20 mM) 48 h. The protocol: as §2, §3
Data set [6] concerns HCT116 cells. Put plainly: GSH assay of cell lysates. It is filed as cell-based. To be noted: 2DG (20 mM) 48 h. As to the method: as §2, §3
Data set [7] concerns the target T2, AKR1B1. The settings on record: ND = no detectable activity or less than 32 nmol/min/mg; cited from earlier work.
Data set [8] concerns CaCo2 cells. The data set can be described thus: Cytotoxicity assay (cell survival rate, MTT). It is filed as cell-based. The settings on record: substrate alone, 2DG for 72 hours. The protocol:
as §2
(§4) The AKR1Bs substrates’ cytotoxicity was assessed by cell survival rate using MTT assay. After the cells were treated with the substrates for the length of time indicated, MTT was added to a final concentration of 0.5 mg/ml in each well of a 96-well plate, and the plates were incubated at 37° C. for 4 hour. Then DMSO was added to dissolve the formazan product, the amount of which is proportional to the number of live cells. The absorbance of dissolved dye was measured at 540 nm using an automatic microplate reader.

Data set [9] relates to HepG2 cells. Put plainly: Cytotoxicity assay (cell survival rate, MTT). Format: cell-based. The settings on record: substrate alone, 2DG for 72 hours. The protocol: as §2, §4
Data set [10] relates to SKOV3 cells. Put plainly: Cytotoxicity assay (cell survival rate, MTT). It is filed as cell-based. The settings on record: substrate alone, 2DG for 72 hours. As to the method: as §2, §4
Data set [11] concerns HCT116 cells. The data set can be described thus: Cytotoxicity assay (cell survival rate, MTT). The settings on record: substrate alone, 2DG for 72 hours. Format: cell-based. The protocol:
as §2, §4

Data set [12] addresses T1, AKR1B10. Put plainly: Enzyme activity assay (NADPH oxidation), purified AKR1B10. It is filed as biochemical. The settings on record: 20 mM substrate, pH 7.0, 30° C. As to the method:
as §1

A further data set has as its system HT29 cells. The data set can be described thus: Cytotoxicity assay (cell survival rate, MTT). The settings on record: substrate alone, 2DG for 72 hours. It is filed as cell-based. The protocol:
as §4, with “HepG2 cells, SKOV3 cells, HCT116 cells and CaCo2 cells were cultured in DMEM medium, SW480 cells in 1640 medium, and HT29 cells in McCoy’s 5A medium. […] In cytotoxicity assays, cells were seeded at 1 × 10^5 cells/well in 96 well plates with full medium. In GSH assay and Western blot analysis, cells were seeded at 3× 10^6 cells/well in 6 well plates. The AKR1Bs” for “The AKR1Bs”

The subject of the next data set is SW480 cells. Put plainly: Cytotoxicity assay (cell survival rate, MTT). Format: cell-based. To be noted: substrate alone, 2DG for 72 hours. As to the method: as §4, with “HepG2 cells, SKOV3 cells, HCT116 cells and CaCo2 cells were cultured in DMEM medium, SW480 cells in 1640 medium, and HT29 cells in McCoy’s 5A medium. […] In cytotoxicity assays, cells were seeded at 1 × 10^5 cells/well in 96 well plates with full medium. In GSH assay and Western blot analysis, cells were seeded at 3× 10^6 cells/well in 6 well plates. The AKR1Bs” for “The AKR1Bs”

T1 sequence (O60218 whole entry): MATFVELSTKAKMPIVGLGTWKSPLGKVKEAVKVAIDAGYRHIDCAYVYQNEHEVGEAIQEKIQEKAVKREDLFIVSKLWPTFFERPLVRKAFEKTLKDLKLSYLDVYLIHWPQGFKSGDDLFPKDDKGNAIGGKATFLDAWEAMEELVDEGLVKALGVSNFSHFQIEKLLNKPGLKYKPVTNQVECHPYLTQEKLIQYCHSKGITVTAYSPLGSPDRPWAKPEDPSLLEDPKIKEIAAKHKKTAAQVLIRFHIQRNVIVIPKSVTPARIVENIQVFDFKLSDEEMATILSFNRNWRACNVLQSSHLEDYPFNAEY

As to `O=CC[C@@H](O)[C@H](O)[C@H](O)CO` [2DG, 2-deoxyglucose], the “AKR1B10 activity, amount of NADPH (nmol) oxidized per min per mg of protein” value at AKR1B10 [1] is listed as 87 nmol/min/mg. Moreover, the Inhibition of glycolysis in the data set on glycolysis was 15-40%. Also, the results for the “Efficiency as substrate of AKR1B1 (rate of NADPH depletion)” value on AKR1B1 [2] and at AKR1B1 [2] (listed as 2 DG) were “then 2DG” and “worst substrate among the three”, respectively. Further, the “GSH level in the presence of 2DG” value in the data set with CaCo2 cells [3], with HepG2 cells [4], in the data set with SKOV3 cells [5] and in the data set on HCT116 cells [6] was “decreased significantly” throughout. For the same molecule, on AKR1B1 [7], the “AKR1B1 activity, amount of NADPH (nmol) oxidized per min per mg of protein” value is 149 nmol/min/mg. The “Cytotoxicity of AKR1Bs substrate (cell survival rate)” value in the data set with CaCo2 cells [8] was “more sensitive to 2DG than HepG2 and SKOV3”; in the data set on HepG2 cells [9] it was “more sensitive; also recorded: not as efficient as glyceraldehyde and diacetyl”; with SKOV3 cells [10], “more sensitive; also recorded: not as efficient as glyceraldehyde and diacetyl”; with HCT116 cells [11], “more sensitive to 2DG than HepG2 and SKOV3”; with HT29 cells, “more resistant”; in the data set on SW480 cells, “more resistant”. The entries for the “Efficiency as substrate of AKR1B10 (rate of NADPH depletion)” value at AKR1B10 [12] and at AKR1B10 [12] (listed as 2 DG) were “then 2DG” and “worst substrate among the three”, respectively.
